From PubChem BioAssay AID1259407 (Chemical Carcinogenesis Research Information System (CCRIS), 2018) come the findings set out here.

Activity calls are given as the source filed them. The rule behind the calls is not given here.

The subject of this data set is CCRIS mutagenicity, Ames/micronucleus/aberration tests. Kind of data set: CCRIS mutagenicity studies. The conditions noted are these: Test System: AMES SALMONELLA TYPHIMURIUM
[1] abbreviates: Strain/Indicator: TA98, Metabolic Activation: NONE, Method: PREINCUBATION
Setting [2] is: Strain/Indicator: TA98, Metabolic Activation: NONE, Method: STANDARD PLATE.
Setting [3] is: Strain/Indicator: TA100, Metabolic Activation: NONE, Method: STANDARD PLATE.

As for `Clc1cccc2ccccc12`, the mutagenic call (Strain/Indicator: TA97, Metabolic Activation: HAMSTER, LIVER, S-9, AROCLOR 1254 (10%), Method: PREINCUBATION) is “inactive; negative”; the mutagenic call (Strain/Indicator: TA97, Metabolic Activation: HAMSTER, LIVER, S-9, AROCLOR 1254 (30%), Method: PREINCUBATION) was “active; positive”; the mutagenic call (Strain/Indicator: TA97, Metabolic Activation: NONE, Method: PREINCUBATION) is “inactive; negative”; the mutagenic call (Strain/Indicator: TA97, Metabolic Activation: RAT, LIVER, S-9, AROCLOR 1254 (30%), Method: PREINCUBATION) was “inactive; negative”; the mutagenic call (Strain/Indicator: TA98, Metabolic Activation: HAMSTER, LIVER, S-9, AROCLOR 1254 (30%), Method: PREINCUBATION) was “inactive; negative”; the mutagenic call under setting [1] is “inactive; negative”. Also, the mutagenic call by setting is: under setting [2], “inactive; negative”; (Strain/Indicator: TA98, Metabolic Activation: RAT, LIVER, S-9, AROCLOR 1254 (30%), Method: PREINCUBATION) “inactive; negative”; (Strain/Indicator: TA98, Metabolic Activation: RAT, LIVER, S-9, AROCLOR 1254, Method: STANDARD PLATE) “inactive; negative”; (Strain/Indicator: TA100, Metabolic Activation: HAMSTER, LIVER, S-9, AROCLOR 1254 (10%), Method: PREINCUBATION) “inactive; negative”; (Strain/Indicator: TA100, Metabolic Activation: HAMSTER, LIVER, S-9, AROCLOR 1254 (30%), Method: PREINCUBATION) “active; positive”; (Strain/Indicator: TA100, Metabolic Activation: NONE, Method: PREINCUBATION) “inactive; negative”. For the same compound, the mutagenic call runs as follows: under setting [3], “inactive; negative”; (Strain/Indicator: TA100, Metabolic Activation: RAT, LIVER, S-9, AROCLOR 1254 (10 OR 30%), Method: PREINCUBATION) “inactive; negative”; (Strain/Indicator: TA100, Metabolic Activation: RAT, LIVER, S-9, AROCLOR 1254, Method: STANDARD PLATE) “inactive; negative”; (Strain/Indicator: TA1535, Metabolic Activation: HAMSTER, LIVER, S-9, AROCLOR 1254 (10 OR 30%), Method: PREINCUBATION) “inactive; negative”; (Strain/Indicator: TA1535, Metabolic Activation: NONE, Method: PREINCUBATION) “inactive; negative”; (Strain/Indicator: TA1535, Metabolic Activation: RAT, LIVER, S-9, AROCLOR 1254 (30%), Method: PREINCUBATION) “inactive; negative”.

Consider `COc1ccc(/C=C/c2ccc(N)cc2)cc1`, for which the mutagenic call (Strain/Indicator: TA98(1,8-DNP6), Metabolic Activation: NONE, Method: STANDARD PLATE) is “inactive; negative”; the mutagenic call (Strain/Indicator: TA98(1,8-DNP6), Metabolic Activation: S-9, Method: STANDARD PLATE) is “inactive; negative”; the mutagenic call under setting [2] was “inactive; negative”; the mutagenic call (Strain/Indicator: TA98, Metabolic Activation: S-9, Method: STANDARD PLATE) is “active; positive”; the mutagenic call under setting [3] was “inactive; negative”; the mutagenic call (Strain/Indicator: TA100, Metabolic Activation: S-9, Method: STANDARD PLATE) is “active; positive”.

As to `CC(=O)ON(OCc1ccc(Br)cc1)C(=O)c1ccccc1`, the mutagenic call reads like this: under setting [3], “active; positive”; (Strain/Indicator: TA100, Metabolic Activation: RAT, S-9, AROCLOR, Method: STANDARD PLATE) “active; positive”.

Regarding `Oc1ccc2c(ccc3[nH]c4ccc5ccccc5c4c32)c1`, the mutagenic call runs as follows: under setting [2], “inactive; negative”; (Strain/Indicator: TA98, Metabolic Activation: RAT, LIVER, S-9, 3-METHYLCHOLANTHRENE, Method: STANDARD PLATE) “active; positive”; under setting [3], “inactive; negative”; (Strain/Indicator: TA100, Metabolic Activation: RAT, LIVER, S-9, 3-METHYLCHOLANTHRENE, Method: STANDARD PLATE) “active; positive”; (Strain/Indicator: TM677, Metabolic Activation: NONE, Method: PREINCUBATION) “inactive; negative”; (Strain/Indicator: TM677, Metabolic Activation: RAT, LIVER, S-9, 3-METHYLCHOLANTHRENE (1%), Method: PREINCUBATION) “active; positive”. In addition, the mutagenic call (Strain/Indicator: TM677, Metabolic Activation: RAT, LIVER, S-9, 3-METHYLCHOLANTHRENE (10%), Method: PREINCUBATION) is “active; positive” and the mutagenic call (Strain/Indicator: TM677, Metabolic Activation: RAT, LIVER, S-9, AROCLOR 1254 (10%), Method: PREINCUBATION) is “active; positive”.

As for `COC(=O)C(=Cc1ccc(Br)o1)[N+](=O)[O-]`, the mutagenic call under setting [1] was “inactive; negative”.
